Counter-ions that a name gives are not always drawn.
Legend:
C2C12 cells [1] = test: Alkaline phosphatase (ALP) assay: potentiation of BMP-2-induced ALP activity; conditions: C2C12 cells; for cell lifting from culture plates: ALP assay
Protocol: (§1) Their activity was evaluated by determining the potentiation of alkaline phosphatase activity in sub-optimal doses of BMP in the presence or absence of exogenously added noggin.
The BMP-potentiating activities of compounds may be evaluated by monitoring several markers of the osteoblastic phenotype corresponding to various time points during phenotype differentiation of C2C12 cells towards terminally differentiated osteoblasts.
The C2C12 cells at passages 5 to 10 were subcultured in T-75 cm^2 flasks in DMEM supplemented with 10% FBS at 37° C. in 5% CO2 with humidification. When the flasks reached 80% confluence, the cells were trypsinized and seeded in triplicate.
The C2C12 cells were plated at 200,000 cells/well in 6-well plates and grown overnight in DMEM containing 10% FBS. On day 2, the culture medium was replaced with DMEM containing 2% FBS and the cells were treated with various concentrations of compound for 24 hours. On day 3, the culture medium was replaced with DMEM containing 2% FBS and the cells were treated with 50 ng/ml of BMP-2 and various concentrations of compound for 72 hours. The cells were washed with phosphate-buffered saline (PBS) and lysed by addition of lysis buffer (10 mM Tris-HCl pH 8.0, 1 mM MgCl2 and 1.0% Triton X-100). The cell lysates were centrifuged for 5 minutes at 13,000×g. The supernatant was removed and the aliquots were assayed for ALP activity and protein amount. The ALP activity was measured in triplicate using an ALP assay kit (Sigma-Aldrich, St. Louis, Mo.) in microtiter plates. The protein amount was determined with Bio-Rad protein assay reagent (Bio-Rad, Hercules, Calif.) using bovine serum albumin (BSA) as a standard. The ALP activity (nmoles of p-nitrophenol per ml) was normalized to the protein amount (nmoles of p-nitrophenol per μg).

C2C12 cells [2] = test: BMP-Noggin competitive alkaline phosphatase (ALP) assay; type: cell-based, Mouse; conditions: BMP-Noggin competitive ALP assay, low cell number and low yield of protein
Protocol: as §1
Mouse C2C12 cells and Dulbecco's modified Eagle's medium (DMEM) were purchased from ATCC (Manassas, Va.). The non-heat inactivated fetal bovine serum (FBS) was purchased from HyClone Laboratories, Inc. (Logan, Utah). The C2C12 cells at passages 5 to 10 were subcultured in T-75 cm^2 flasks in DMEM supplemented with 10% FBS at 37° C. in 5% CO2 with humidification. When the flasks reached 80% confluence, the cells were trypsinized and seeded in triplicate.
The C2C12 cells were plated at 200,000 cells/well in 6-well plates and grown overnight in DMEM containing 10% FBS. On day 2, the culture medium was replaced with DMEM containing 2% FBS and the cells were treated with 90-100 ng/ml of BMP-2 (as noted in each experiment), various concentrations of compound, and 100-120 ng/ml of noggin (as noted in each experiment) for 72 hours. The cells were washed with phosphate-buffered saline (PBS) and lysed by addition of lysis buffer (10 mM Tris-HCl pH 8.0, 1 mM MgCl2 and 1.0% Triton X-100). The cell lysates were centrifuged for 5 minutes at 13,000×g. The supernatant was removed and the aliquots were assayed for ALP activity and protein amount. The ALP activity was measured in triplicate using an ALP assay kit (Sigma-Aldrich, St. Louis, Mo.) in microtiter plates. The protein amount was determined with Bio-Rad protein assay reagent (Bio-Rad, Hercules, Calif.) using bovine serum albumin (BSA) as a standard. The ALP activity (nmoles of p-nitrophenol per ml) was normalized to the protein amount (nmoles of p-nitrophenol per μg).

Sprague Dawley rats = test: Collagen disc implantation with macrolides in rat ectopic model; type: in vivo; set-up: Ave. (Xray score): scale not given here; conditions: for Ave. (Xray score) / Results (bone, animals with bone of 4): 100 ul, collagen, no BMP-2, 4 weeks; for De novo bone formation: local, collagen disc, chest implant, absence of BMP-2, 4 weeks
From the text: Sprague Dawley rats about 5-6 weeks of age were chest implanted with a collagen disc (diameter of 1.0 cm and height of 2.0 mm; total volume of 150 cubic millimeters) and doses of macrolides in the absence of BMP-2. After 4 weeks the rats were sacrificed and evaluated for bone growth. […] In certain embodiments, the disclosure contemplates local bone formation for fracture repair, segmental bone defects, spine fusion, bone grafting, and regional bone enhancement for osteopenic bones before they fracture (e.g. hip, vertebral body, etc) by deliver locally to induce local bone formation.

| Structure (SMILES) | Fold-increase of BMP-induced ALP (over BMP alone control) (C2C12 cells [1]) | cell lifting from culture plates (C2C12 cells [1]) | also measured |
| --- | --- | --- | --- |
| Nc1ncn([C@H]2C[C@H](O)[C@@H](CO)O2)c(=O)n1 [Decitabine] | 6.0 | – | – |
| CCCSc1ccc2nc(NC(=O)OC)[nH]c2c1 [Albendazole, albendazole] | – | caused cell lifting from culture plates | – |
| CCCCC(=O)OCC(=O)[C@]1(O)Cc2c(O)c3c(c(O)c2[C@@H](O[C@H]2C[C@H](NC(=O)C(F)(F)F)[C@H](O)[C@H](C)O2)C1)C(=O)c1c(OC)cccc1C3=O [Valrubicin] | 3.0 | – | – |
| CC[C@H](C)C(=O)O[C@H]1C[C@@H](C)C=C2C=C[C@H](C)[C@H](CC[C@@H]3C[C@@H](O)CC(=O)O3)[C@H]21 [Lovastatin, lovastatin] | – | – | cell lifting from culture plates (C2C12 cells [2]): caused cell lifting from culture plates |
| C[C@H]1[C@H](OC(=O)CCC(=O)O)O[C@@H]2O[C@@]3(C)CC[C@H]4[C@H](C)CC[C@@H]1[C@@]24OO3 [Artesunate, 4-oxo-4-(((3R,5aS,6R,8aS,9R,10R,12R,12aR)-3,6,9-trimethyldecahydro-3H-3,12-epoxy[1,2]dioxepino[4,3-i]isochromen-10-yl)oxy)butanoic acid] | – | – | cell lifting from culture plates (C2C12 cells [2]): caused cell lifting from culture plates |
| CCC(C)n1ncn(-c2ccc(N3CCN(c4ccc(OCC5COC(Cn6cncn6)(c6ccc(Cl)cc6Cl)O5)cc4)CC3)cc2)c1=O (centres unmarked) [itraconazole, 4-(4-(4-(4((2((1H-1,2,4-triazol-1-yl)methyl)-2-(2,4-dichlorophenyl)-1,3-dioxolan-4-yl)methoxy)phenyl)piperazin-1-yl)phenyl)-1-(sec-butyl)-1H-1,2,4-triazol-5(4H)-one] | – | caused cell lifting from culture plates | – |
| CC(=O)O[C@@]12CO[C@@H]1C[C@H](O)[C@@]1(C)C(=O)[C@H](O)C3=C(C)[C@@H](OC(=O)[C@H](O)[C@@H](NC(=O)OC(C)(C)C)c4ccccc4)C[C@](O)([C@@H](OC(=O)c4ccccc4)[C@H]21)C3(C)C [Docetaxel, (2aR,4S,4aS,6R,9S,11R,12S,12aR,12b S)-12b-acetoxy-9-(((2R,3S)-3-((tert-butoxycarbonyl)amino)-2-hydroxy-3-phenylpropanoyl)oxy)-4,6,11-trihydroxy-4a,8,13,13-tetramethyl-5-oxo-2a,3,4,4a,5,6,9,10,11,12,12a,12b-dodecahydro-1H-7,11-methanocyclodeca[3,4]benzo[1,2-b]oxet-12-yl benzoate] | – | caused cell lifting from culture plates | – |
| CCC1=C[C@@H]2CN(C1)Cc1c([nH]c3ccccc13)[C@@](C(=O)OC)(c1cc3c(cc1OC)N(C)[C@H]1[C@@](O)(C(=O)OC)[C@H](OC(C)=O)[C@]4(CC)C=CCN5CC[C@]31[C@@H]54)C2 [Vinorelbine tartrate] | 4.0 | caused cell lifting from culture plates | – |
| CO[C@@]12[C@H](COC(N)=O)C3=C(C(=O)C(C)=C(N)C3=O)N1C[C@@H]1N[C@@H]12 [Mitomycin C] | 12.0 | – | – |
| COC(=O)Nc1nc2cc(C(=O)c3ccc(F)cc3)ccc2[nH]1 [flubendazole] | – | caused cell lifting from culture plates | – |
| CCN(CC)CCNC(=O)c1c(C)[nH]c(/C=C2\C(=O)Nc3ccc(F)cc32)c1C [Sunitinib] | 4.0 | – | – |
| CCCCCCNC(=O)n1cc(F)c(=O)[nH]c1=O [carmofur, 5-fluoro-N-hexyl-2,4-dioxo-3,4-dihydropyrimidine-1(2H)-carboxamide] | – | caused cell lifting from culture plates | – |
| CC[C@]1(O)C[C@H]2CN(CCc3c([nH]c4ccccc34)[C@@](C(=O)OC)(c3cc4c(cc3OC)N(C=O)[C@H]3[C@@](O)(C(=O)OC)[C@H](OC(C)=O)[C@]5(CC)C=CCN6CC[C@]43[C@@H]65)C2)C1 [Vincristine] | 5.0 | – | – |
| C=C1/C(=C\C=C2/CCC[C@]3(C)[C@@H]([C@H](C)/C=C/[C@@H](O)C4CC4)CC[C@@H]23)C[C@@H](O)C[C@@H]1O [Calcipotriol, calcipotriol] | – | caused cell lifting from culture plates | – |
| Nc1ccn([C@@H]2O[C@H](CO)[C@@H](O)[C@@H]2O)c(=O)n1 [Cytarabine HCl] | 2.0 | – | – |
| O=C1c2c(O)ccc(O)c2C(=O)c2c(NCCNCCO)ccc(NCCNCCO)c21 [Mitoxantrone, mitoxantrone] | 4.0 | caused cell lifting from culture plates | – |
| Cc1ccc(Nc2nccc(N(C)c3ccc4c(C)n(C)nc4c3)n2)cc1S(N)(=O)=O [Pazopanib] | 2.5 | – | – |
| CC[C@@]1(O)C(=O)OCc2c1cc1n(c2=O)Cc2cc3c(CN(C)C)c(O)ccc3nc2-1 [Topotecan] | 4.0 | – | – |
| CO[C@H]1C[C@@H]2CC[C@@H](C)[C@@](O)(O2)C(=O)C(=O)N2CCCC[C@H]2C(=O)O[C@H]([C@H](C)C[C@@H]2CC[C@@H](OCCO)[C@H](OC)C2)CC(=O)[C@H](C)/C=C(\C)[C@@H](O)[C@@H](OC)C(=O)[C@H](C)C[C@H](C)/C=C/C=C/C=C/1C [Everolimus, everolimus] | – | – | Ave. (Xray score) (Sprague Dawley rats; dose 10 mM): 0; Results (bone, animals with bone of 4) (Sprague Dawley rats; dose 10 mM): No bone (0 of 4); Ave. (Xray score) (Sprague Dawley rats; dose 15 mM): 2.5; Results (bone, animals with bone of 4) (Sprague Dawley rats; dose 15 mM): Bone (3 of 4); Ave. (Xray score) (Sprague Dawley rats; dose 20 mM): 3.75; Results (bone, animals with bone of 4) (Sprague Dawley rats; dose 20 mM): Bone (4 of 4); Ave. (Xray score) (Sprague Dawley rats; dose 25 mM): 4.75; Results (bone, animals with bone of 4) (Sprague Dawley rats; dose 25 mM): Bone (4 of 4); Ave. (Xray score) (Sprague Dawley rats; dose 30 mM): 3.75; Results (bone, animals with bone of 4) (Sprague Dawley rats; dose 30 mM): Bone (3 of 4); Ave. (Xray score) (Sprague Dawley rats; dose 35 mM): 4.75; Results (bone, animals with bone of 4) (Sprague Dawley rats; dose 35 mM): Bone (4 of 4); De novo bone formation (Sprague Dawley rats): De novo bone formation is demonstrated locally |
| COc1cccc2c1C(=O)c1c(O)c3c(c(O)c1C2=O)C[C@@](O)(C(C)=O)C[C@@H]3O[C@H]1C[C@H](N)[C@H](O)[C@H](C)O1 [Daunorubicin hydrochloride] | 7.0 | caused cell lifting from culture plates | – |
| Clc1ccc(COC(Cn2ccnc2)c2ccc(Cl)cc2Cl)cc1 (centres unmarked) [Econazole nitrate, econazole nitrate] | – | caused cell lifting from culture plates | – |
| COc1cc([C@@H]2c3cc4c(cc3[C@@H](O[C@@H]3O[C@@H]5CO[C@@H](c6cccs6)O[C@H]5[C@H](O)[C@H]3O)[C@H]3COC(=O)[C@H]23)OCO4)cc(OC)c1O [Teniposide] | 7.0 | – | – |
| CCN(CC)CCOc1ccc(C(=C(Cl)c2ccccc2)c2ccccc2)cc1 [clomid] | – | caused cell lifting from culture plates | – |
| C#CC(c1ccccc1)(c1ccccc1)n1ccnc1 [1-(1,1-diphenylprop-2-yn-1-yl)-1H-imidazole] | 7.0 | – | – |
| COC1CC2CCC(C)C(O)(O2)C(=O)C(=O)N2CCCCC2C(=O)OC(C(C)CC2CCC(O)C(OC)C2)CC(=O)C(C)C=C(C)C(O)C(OC)C(=O)C(C)CC(C)C=CC=CC=C1C (centres unmarked) [Sirolimus, 9,10,12,13,14,21,22,23,24,25,26,27,32,33,34,34a-Hexadecahydro-9,27-dihydroxy-3-[2-[4-hydroxy-3-methoxycyclohexyl]-1-methylethyl]-10,21-dimethoxy-6,8,12,14,20,26-hexamethyl-23,27-epoxy-3H-pyrido[2,1-c][1,4]oxaazacyclohentriacontine-1,5,11,28,29(4H,6H,31H)-pentone] | – | – | Ave. (Xray score) (Sprague Dawley rats; dose 10 mM): 0.25; Results (bone, animals with bone of 4) (Sprague Dawley rats; dose 10 mM): Bone (1 of 4); Ave. (Xray score) (Sprague Dawley rats; dose 15 mM): 0.5; Results (bone, animals with bone of 4) (Sprague Dawley rats; dose 15 mM): Bone (1 of 4); Ave. (Xray score) (Sprague Dawley rats; dose 20 mM): 0.75; Results (bone, animals with bone of 4) (Sprague Dawley rats; dose 20 mM): Bone (1 of 4); Ave. (Xray score) (Sprague Dawley rats; dose 25 mM): 2.75; Results (bone, animals with bone of 4) (Sprague Dawley rats; dose 25 mM): Bone (3 of 4); Ave. (Xray score) (Sprague Dawley rats; dose 30 mM): 3.5; Results (bone, animals with bone of 4) (Sprague Dawley rats; dose 30 mM): Bone (3 of 4); Ave. (Xray score) (Sprague Dawley rats; dose 35 mM): 4.25; Results (bone, animals with bone of 4) (Sprague Dawley rats; dose 35 mM): Bone (4 of 4); De novo bone formation (Sprague Dawley rats): De novo bone formation is demonstrated locally |
| C=C1/C(=C\C=C2/CCC[C@]3(C)[C@@H]([C@H](C)CCCC(C)(C)O)CC[C@@H]23)C[C@@H](O)C[C@@H]1O [calcitriol] | – | caused cell lifting from culture plates | – |
| O=c1[nH]cc(F)c(=O)[nH]1 [5-fluorouracil] | – | caused cell lifting from culture plates | – |
| CC[C@@]1(O)C(=O)OCc2c1cc1n(c2=O)Cc2cc3c(N)cccc3nc2-1 [9-aminocamptothecin] | 10.0 | – | – |
| COc1cccc2c1C(=O)c1c(O)c3c(c(O)c1C2=O)C[C@@](O)(C(=O)CO)C[C@@H]3O[C@H]1C[C@H](N)[C@H](O)[C@H](C)O1 [Doxorubicin] | 4.0 | – | – |

From patent US11179501B2, “Bone morphogenetic protein pathway activation, compositions for ossification, and methods related thereto” (Emory University, priority 2011, dated 2021)
